Reference: ChEMBL document CHEMBL4837252, “Zinc ionophores isolated from Terminalia bellirica fruit rind extract protect against cardiomyocyte hypoxia/reoxygenation injury” (2021)
Calls of active or inactive are those of the source. No cut-off for these calls is given here.

Assays:
[1] = test system: H9c2; assay: Cardioprotective activity against hypoxia/reoxygenation-induced injury in rat H9c2 cells assessed as cell viability at 10 uM treated after 8 hrs of hypoxia and before 16 hrs of reoxygenation period by MTT assay; type: functional, cell-based
[2] = test system: H9c2; assay: (§1) Inhibition of apoptosis in hypoxia/reoxygenation induced injury in rat H9c2 cells assessed as late apoptotic cells at 10 uM treated after 8 hrs of hypoxia and before 2 hrs of reoxygenation period by AnnexinV-FITC/propidium iodide staining based flow cytometry analysis (reference value: 7%); type: functional; parameters: scale not given: the % may be the effect or the level left
[3] = Zinc ionophore activity assessed as uptake of zinc ions into liposomes by measuring increase in liposome-encapsulated FluoZin3-fluorescence at 10 uM measured after 1 hr in presence of ZnCl2 by fluorescence analysis relative to control
[4] = test system: H9c2; assay: (§2) Inhibition of apoptosis in hypoxia/reoxygenation induced injury in rat H9c2 cells assessed as late necrotic cells at 10 uM treated after 8 hrs of hypoxia and before 2 hrs of reoxygenation period by AnnexinV-FITC/propidium iodide staining based flow cytometry analysis (reference value: 1.25%); type: functional; parameters: scale not given: the % may be the effect or the level left
[5] = test system: H9c2; assay: as §1, with “viable” for “late apoptotic”, “period in presence of ZnCl2” for “period”, “55.35%)” for “7%)”; type: functional; conditions: read-out: Activity
[6] = test system: H9c2; assay: as §1, with “early” for “late”, “period in presence of ZnCl2” for “period”, “36.45%)” for “7%)”; type: functional; parameters: scale not given: the % may be the effect or the level left
[7] = test system: H9c2; assay: Inhibition of apoptosis in hypoxia/reoxygenation induced injury in rat H9c2 cells assessed as viable cells at 10 uM treated after 8 hrs of hypoxia and before 2 hrs of reoxygenation period by AnnexinV-FITC/propidium iodide staining based flow cytometry analysis (reference value: 55.35%); type: functional; conditions: read-out: Activity
[8] = test system: H9c2; assay: Inhibition of apoptosis in hypoxia/reoxygenation induced injury in rat H9c2 cells assessed as caspase-3 activity at 10 uM treated after 8 hrs of hypoxia and before 16 hrs of reoxygenation period in presence of ZnCl2 (reference value: 187%); type: functional; parameters: scale not given: the % may be the effect or the level left
[9] = test system: H9c2; assay: Cardioprotective activity in rat H9c2 cells assessed as reduction in hypoxia/reoxygenation-induced intracellular Zn2+ level depletion by measuring improvement in intracellular TSQ fluorescence intensity at 10 uM treated at the onset of 1 hr reoxygenation period in the presence of ZnCl2 by TSQ staining based fluorescence analysis relative to control; type: functional
[10] = test system: H9c2; assay: as §2, with “as” for “as late”, “period in presence of ZnCl2” for “period”; type: functional; parameters: scale not given: the % may be the effect or the level left
[11] = test system: H9c2; assay: as §1, with “period in presence of ZnCl2” for “period”; type: functional; parameters: scale not given: the % may be the effect or the level left
[12] = Zinc ionophore activity assessed as uptake of zinc ions into liposomes by measuring increase in liposome-encapsulated FluoZin3-fluorescence at 10 uM measured after 1 hr in presence of ZnCl2 and TPEN by fluorescence analysis
[13] = test system: H9c2; assay: Inhibition of apoptosis in hypoxia/reoxygenation induced injury in rat H9c2 cells assessed as early apoptotic cells at 10 uM treated after 8 hrs of hypoxia and before 2 hrs of reoxygenation period by AnnexinV-FITC/propidium iodide staining based flow cytometry analysis (reference value: 36.45%); type: functional; parameters: scale not given: the % may be the effect or the level left
[14] = test system: H9c2; assay: Cardioprotective activity against hypoxia/reoxygenation-induced injury in rat H9c2 cells assessed as cell viability at 10 uM treated after 8 hrs of hypoxia and before 16 hrs of reoxygenation period in presence of ZnCl2 by MTT assay; type: functional; conditions: read-out: Activity

Oc1cc(O)c2c(c1)O[C@H](c1cc(O)c(O)c(O)c1)[C@H](O)C2 [EPIGALLOCATECHIN]
Activity [1]: inactive | Activity [2]: 4.77% | fold change (FC) [3]: 8 | Activity [4]: 3.92% | viability at 10 µM [5]: 61.8% | Activity [6]: 26.47% | viability at 10 µM [7]: 47% | Activity [8]: 158% | fold change (FC) [9]: 1 | Activity [10]: 5.05% | Activity [11]: 6.72% | Activity [12]: inactive | Activity [13]: 44.27% | viability at 10 µM [14]: 52%

O=C(O[C@@H]1Cc2c(O)cc(O)cc2O[C@@H]1c1ccc(O)c(O)c1)c1cc(O)c(O)c(O)c1 [EPICATECHIN GALLATE]
Activity [1]: inactive | Activity [2]: 7.32% | fold change (FC) [3]: 16 | Activity [4]: 1.05% | viability at 10 µM [5]: 73.5% | Activity [6]: 22.8% | viability at 10 µM [7]: 54.2% | Activity [8]: 139% | fold change (FC) [9]: 2.1 | Activity [10]: 1.42% | Activity [11]: 2.32% | Activity [12]: inactive | Activity [13]: 37.4% | viability at 10 µM [14]: 60%

O=C(O[C@@H]1Cc2c(O)cc(O)cc2O[C@@H]1c1cc(O)c(O)c(O)c1)c1cc(O)c(O)c(O)c1 [EPIGALOCATECHIN GALLATE]
Activity [1]: inactive | Activity [2]: 8.12% | fold change (FC) [3]: 28 | Activity [4]: 2.02% | viability at 10 µM [5]: 80.1% | Activity [6]: 16.12% | viability at 10 µM [7]: 52.5% | Activity [8]: 112% | fold change (FC) [9]: 4 | Activity [10]: 0.97% | Activity [11]: 2.72% | Activity [12]: inactive | Activity [13]: 37.4% | viability at 10 µM [14]: 78%

Oc1c(I)cc(Cl)c2cccnc12
fold change (FC) [3]: 40 | Activity [12]: inactive
